Assay results reported in patent US20050272040A1, “Method for increasing synaptic growth or plasticity” (priority 2002, published 2005).

Key:
Hippocampal neurons = assay: Effect of inhibitors on BDNF-induced gene transcription (real time RT-PCR); format: cell-based, rat; conditions: for Effect of inhibitor on BDNF-induced VGF transcription / Effect of inhibitor on BDNF-induced Arc transcription / Effect of inhibitor on BDNF-induced c-fos transcription / Effect of inhibitor on BDNF-induced EGR-1 transcription: 30 min pre-incubation, K252a 200 nM, U0126 30 μM, PD98059 50 μM, U73122 10 μM, KN93 10 μM, LY294002 30 μM, H-89 1 μM, CC 1 μM; for Effect of inhibitor on BDNF-induced VGF transcription: BDNF 3 Hours; for Effect of inhibitor on BDNF-induced Arc transcription / Effect of inhibitor on BDNF-induced c-fos transcription / Effect of inhibitor on BDNF-induced EGR-1 transcription: BDNF 20 Minutes; for Effect on BDNF-induced transcription of the immediate early genes and VGF: BDNF 20 min for immediate early genes, 3 hr for VGF
Experimental: Signaling cascades involved in BDNF-mediated synaptic strengthening include mitogen-activated protein (MAP) kinase, phospholipase C-γ (PLC-γ) and phosphoinositide-3 kinase (PI3K) (Gottschalk et al. (1999) supra; Minichiello et al. (2002) supra; Ying et al. (2002); Mizuno et al. (2003) supra). To determine whether these transduction pathways are also required for BDNF transcriptional regulation of immediate early genes at 20 minutes and for VGF at 3 hours, pharmacological inhibitors were employed (Table 2).
Effect of inhibitors on BDNF-induced gene transcription. The regulation of BDNF-induced genes in the presence of inhibitors was determined by real time RT-PCR. Neurons were pre-incubated with inhibitors for 30 minutes prior to BDNF treatment (20 minutes for immediate early genes and 3 hours for VGF). […] “blocked” indicates significant reduction of transcription in the presence of inhibitor plus BDNF relative to BDNF alone (p<0.05, ANOVA, n=3).
Each experiment consisted of four groups: vehicle, inhibitor alone, BDNF, BDNF plus inhibitor. Data were normalized to GAPDH and expressed as a fold change of vehicle control.
(§1) cDNA (100 μl) was prepared from 2 μg control or BDNF-treated RNA using random primers and Superscript II reverse transcriptase. 25 μl PCR reactions were then carried out using gene specific primers designed by Primer Express software and TaqMan MGB probes (Applied Biosystems 7000 Sequence Detection System, Foster City, Calif.). Duplicate wells were included for each condition and primer pair. Primers specific to the housekeeping gene, glyceraldehyde-3-phosphate dehydrogenase (GAPDH) were used as an internal control. Data analysis was performed according to the protocol provided by Applied Biosystems.
Hippocampal neurons were pre-incubated with inhibitors for 30 min prior to BDNF treatment (20 min for IEGs and 3 hr for VGF). All inhibitors were purchased from Calbiochem, San Diego, Calif. K252a (200 nM), U0126 (30 μM), PD98059 (50 μM), U73122 (10 μM), KN93 (10 μM), LY294002 (30 μM), H-89 (1 μM) and chelerythrine chloride (CC, 1 μM). Pharmacological inhibitors were tested for efficacy by assaying downregulation of endogenous kinase phosphorylation in cell culture using Western blot (Y. Z. Du and C. F. Dreyfus, personal communication). Each experiment consisted of 4 groups: vehicle, inhibitor alone, BDNF, and BDNF plus inhibitor. Following inhibitor and BDNF treatments, RNA was isolated and subjected to real time RT-PCR as described above.

hippocampal cells = assay: Real-time RT-PCR of genes induced by neurotrophin treatment of hippocampal cultures; format: cell-based, rat; parameters: key to NGF effect on Fra2 transcription / NGF effect on CyclinD1 transcription / NGF effect on c-fos transcription / NGF effect on Kv + 1.1 transcription / NGF effect on Na + ch transcription / NGF effect on SgII transcription / NGF effect on SSTR4 transcription / NGF effect on UNC5H2 transcription / NGF effect on NPY transcription / NGF effect on VGF transcription / NGF effect on EGR1 transcription / NGF effect on PTP1B transcription / NGF effect on Arc transcription: UC = unchanged; DOWN: down = decreased
Experimental: The molecular genetics underlying BDNF-evoked plasticity were examined by expression profiling using cDNA microarrays on a population of hippocampal cells in vitro. Synaptic effects of BDNF are observed within 20 minutes of exposure (Levine et al. (1996) supra; Lessmann and Heumann (1998) supra; Schinder et al. (2000) supra). A 3-hour BDNF treatment has been used to identify several genes with roles in synaptic plasticity (Thakker-Varia et al. (2001) supra). Consequently, to reveal immediate, as well as downstream transcriptional changes, both acute (20 minutes) and longer treatment (3 hours) with BDNF were used herein. […] Two independent Atlas arrays were performed using RNA from hippocampal cells treated for either 20 minutes or 3 hours of BDNF (50 ng/mL) and control sister cultures.
Of those genes selected, the regulation of 7% at 20 minutes and 40% at 3 hours were validated, although the magnitude of regulation was not always identical to that observed on the microarray. To focus on genes specifically involved in plasticity, a related neurotrophin, nerve growth factor (NGF), not inducing synaptic plasticity (Levine et al. (1996) supra), served as a control.
Time-mated pregnant rats were sacrificed by CO2 asphyxiation in accordance with institutional guidelines for care and use of animals. Fetuses were removed by caesarean section and transferred to a sterile petri dish with phosphate-buffered saline. Fetal hippocampi were dissected from surrounding brain tissue and meninges were completely removed. Low-density cultures of dissociated embryonic day 18 rat hippocampi (Sprague Dawley from Hilltop Laboratories, Scottsdale, Pa.) were prepared using standard methods (Thakker-Varia et al. (2001) supra). Briefly, pooled tissue from each litter was mechanically dissociated in nutrient medium containing 7.5% fetal bovine serum and plated on poly-D-lysine-coated culture dishes at 350,000 cells/dish. Cultures were maintained in serum-free medium (Thakker-Varia et al., 2001) for 10-14 days and contained pure neurons.
Total cellular RNA was prepared from neuronal cultures treated with either BDNF (50 ng/ml) or vehicle (water) for either 20 min or 3 hr by the guanidine isothiocyanate method and CsCl gradients (Thakker-Varia et al., 2001). DNAse-treated total RNA was prepared from neurotrophin or control hippocampal cultures and reverse transcribed using gene specific primers. Radioactively labeled probes were then hybridized to Atlas Arrays Rat 1.2 (Clontech, Palo Alto, Calif.) according to manufacturer's protocol. Arrays were performed in duplicate with an independent source of RNA. The hybridization pattern was analyzed on a phosphorimager and normalized to the global hybridization signal. Analysis was performed by Clontech using 1.7-fold change as criteria for significance. All transcriptional changes were confirmed by real time RT-PCR on independent samples (see below).
as §1

[1] = NGF as control neurotrophin, 20 minute section of Table 1
[2] = NGF as control neurotrophin, 3 hour section of Table 1

Compound	Effect of inhibitor on BDNF-induced VGF transcription (Hippocampal neurons)	Effect of inhibitor on BDNF-induced Arc transcription (Hippocampal neurons)	Effect of inhibitor on BDNF-induced c-fos transcription (Hippocampal neurons)	Effect on BDNF-induced transcription of the immediate early genes and VGF (Hippocampal neurons)	Effect of inhibitor on BDNF-induced EGR-1 transcription (Hippocampal neurons)	other results
COc1ccc2c(c1)CC[C@@H]1[C@@H]2CC[C@]2(C)[C@@H](NCCCCCCN3C(=O)C=CC3=O)CC[C@@H]12 [U73122]	Blocked	Blocked	Blocked	blocked	–	–
COc1cccc(-c2cc(=O)c3ccccc3o2)c1N [PD98059]	Blocked	Blocked	Blocked	blocked	Blocked	–
O=S(=O)(NCCNC/C=C/c1ccc(Br)cc1)c1cccc2cnccc12 [H-89]	–	–	–	did not affect gene expression	–	–
COc1ccc(S(=O)(=O)N(CCO)c2ccccc2CN(C)C/C=C/c2ccc(Cl)cc2)cc1 [KN93]	Blocked	Blocked	Blocked	blocked	Blocked	–
COC(=O)[C@@]1(O)C[C@H]2O[C@]1(C)n1c3ccccc3c3c4c(c5c6ccccc6n2c5c31)C(=O)NC4 [K252a]	Blocked	Blocked	Blocked	blocked	Blocked	–
NGF: related neurotrophin, nerve growth factor, not inducing synaptic plasticity, served as a control	–	–	–	–	–	Effect of NGF on transcription of BDNF-induced genes (hippocampal cells): did not affect transcription of most genes; NGF effect on Arc transcription (hippocampal cells; [1]): UC; NGF effect on EGR1 transcription (hippocampal cells; [1]): UC; NGF effect on c-fos transcription (hippocampal cells; [1]): UC; NGF effect on Arc transcription (hippocampal cells; [2]): UC; NGF effect on CyclinD1 transcription (hippocampal cells; [2]): UC; NGF effect on EGR1 transcription (hippocampal cells; [2]): UC; NGF effect on Fra2 transcription (hippocampal cells; [2]): DOWN; NGF effect on Kv + 1.1 transcription (hippocampal cells; [2]): UC; NGF effect on NPY transcription (hippocampal cells; [2]): DOWN; NGF effect on Na + ch transcription (hippocampal cells; [2]): UC; NGF effect on PTP1B transcription (hippocampal cells; [2]): UC; NGF effect on SSTR4 transcription (hippocampal cells; [2]): DOWN; NGF effect on SgII transcription (hippocampal cells; [2]): UC; NGF effect on UNC5H2 transcription (hippocampal cells; [2]): UC; NGF effect on VGF transcription (hippocampal cells; [2]): UC; NGF effect on c-fos transcription (hippocampal cells; [2]): UC
N#CC(=C(/N)Sc1ccccc1N)/C(C#N)=C(\N)Sc1ccccc1N [U0126]	Blocked	Blocked	Blocked	blocked	Blocked	–
